Activity calls are given as the source filed them. The calls are words filed in the database; no cut-off is given here.
Columns and labels:
HCT-116 [1] = assay: Antiproliferative activity against human HCT-116 cells assessed as reduction in cell viability measured after 72 hrs by MTT assay; format: functional, cell-based
A549 [2] = assay: Antiproliferative activity against human A549 cells assessed as reduction in cell viability measured after 72 hrs by MTT assay; format: functional, cell-based
4T1 [3] = assay: Antiproliferative activity against mouse 4T1 cells assessed as reduction in cell viability measured after 72 hrs by MTT assay; format: functional, cell-based
HepG2 [4] = assay: Antiproliferative activity against human HepG2 cells assessed as reduction in cell viability measured after 72 hrs by MTT assay; format: functional, cell-based
HCT-116 [5] = assay: Antiproliferative activity against human HCT-116 cells assessed as reduction in cell viability measured after 72 hrs in presence of beta-glucuronidase by MTT assay; format: functional, cell-based
A549 [6] = assay: Antiproliferative activity against human A549 cells assessed as reduction in cell viability measured after 72 hrs in presence of beta-glucuronidase by MTT assay; format: functional, cell-based
4T1 [7] = assay: Antiproliferative activity against mouse 4T1 cells assessed as reduction in cell viability measured after 72 hrs in presence of beta-glucuronidase by MTT assay; format: functional, cell-based
HepG2 [8] = assay: Antiproliferative activity against human HepG2 cells assessed as reduction in cell viability measured after 72 hrs in presence of beta-glucuronidase by MTT assay; format: functional, cell-based
[9] = Drug uptake in human HCT-116 cells assessed as increase in fluorescence intensity measured after 1 to 6 hrs by confocal microscopy analysis; format: ADME, cell-based; details: time 1-6 hrs
HCT-116 [10] = assay: Antiproliferative activity against human HCT-116 cells assessed as reduction in cell viability treated with HSA bound prodrug measured after 72 hrs by MTT assay; format: functional, cell-based
A549 [11] = assay: Antiproliferative activity against human A549 cells assessed as reduction in cell viability treated with HSA bound prodrug measured after 72 hrs by MTT assay; format: functional, cell-based
BXPC-3 [12] = assay: Antiproliferative activity against human BXPC-3 cells assessed as reduction in cell viability treated with HSA bound prodrug measured after 72 hrs by MTT assay; format: functional, cell-based
HepG2 [13] = assay: Antiproliferative activity against human HepG2 cells assessed as reduction in cell viability treated with HSA bound prodrug measured after 72 hrs by MTT assay; format: functional, cell-based
4T1 [14] = assay: Antiproliferative activity against mouse 4T1 cells assessed as reduction in cell viability treated with HSA bound prodrug measured after 72 hrs by MTT assay; format: functional, cell-based
HCT-116 [15] = assay: Antiproliferative activity against human HCT-116 cells assessed as reduction in cell viability treated with HSA bound prodrug measured after 72 hrs in presence of beta-glucuronidase by MTT assay; format: functional, cell-based
A549 [16] = assay: Antiproliferative activity against human A549 cells assessed as reduction in cell viability treated with HSA bound prodrug measured after 72 hrs in presence of beta-glucuronidase by MTT assay; format: functional, cell-based
BXPC-3 [17] = assay: Antiproliferative activity against human BXPC-3 cells assessed as reduction in cell viability treated with HSA bound prodrug measured after 72 hrs in presence of beta-glucuronidase by MTT assay; format: functional, cell-based
HepG2 [18] = assay: Antiproliferative activity against human HepG2 cells assessed as reduction in cell viability treated with HSA bound prodrug measured after 72 hrs in presence of beta-glucuronidase by MTT assay; format: functional, cell-based
4T1 [19] = assay: Antiproliferative activity against mouse 4T1 cells assessed as reduction in cell viability treated with HSA bound prodrug measured after 72 hrs in presence of beta-glucuronidase by MTT assay; format: functional, cell-based
[20] = Cmax in female BALB/c mouse at 38 mg/kg measured up to 168 hrs by HPLC analysis; format: ADME, organism-based; details: in vivo
[21] = Half life in female BALB/c mouse at 38 mg/kg measured up to 168 hrs by HPLC analysis; format: ADME, organism-based; details: in vivo
[22] = Toxicity in female BALB/cA nude mouse assessed as effect on body weight loss at 38 mg/kg, iv administered twice per week measured for 107 days; format: organism-based; details: in vivo, 2568 h, time 107 day
[23] = Toxicity in female BALB/cA nude mouse assessed as damage in heart at 38 mg/kg, iv measured after 24 hrs by H and E staining based analysis; format: organism-based; details: in vivo
[24] = Toxicity in female BALB/cA nude mouse assessed as damage in lung at 38 mg/kg, iv measured after 24 hrs by H and E staining based analysis; format: organism-based; details: in vivo
[25] = Toxicity in female BALB/cA nude mouse assessed as appearance of fibrosis in lung at 38 mg/kg, iv measured after 24 hrs by H and E staining based analysis; format: organism-based; details: in vivo
[26] = Toxicity in female BALB/cA nude mouse assessed as effect on body weight loss at 38 mg/kg, iv administered once a week for 35 days; format: organism-based; details: in vivo, 840 h, time 35 day
[27] = Toxicity in female BALB/cA nude mouse assessed as fibrotic changes in tumor at 38 mg/kg, iv administered once a week for 35 days by H and E staining based analysis; format: organism-based; details: in vivo, 840 h, time 35 day
[28] = Toxicity in female BALB/cA nude mouse assessed as fibrotic changes in kidney at 38 mg/kg, iv administered once a week for 35 days by H and E staining based analysis; format: organism-based; details: in vivo, 840 h, time 35 day
Albumin [29] = molecular target: T1, Albumin (Homo sapiens, UniProt P02768); assay: Binding affinity to human serum albumin assessed as binding rate measured within 4 mins by HPLC analysis relative to control; format: ADME; details: isolated protein
Albumin [30] = molecular target: T1, Albumin; assay: Binding affinity to human serum albumin assessed as binding rate measured after 24 mins by HPLC analysis relative to control; format: ADME; details: isolated protein, 0.4 h
[31] = Prodrug release in human plasma assessed as (S)-4,11-diethyl-4,9-dihydroxy-1,12-dihydro-14H-pyrano[3',4':6,7]indolizino[1,2-b]quinoline-3,14(4H)-dione release measured after 7 days relative to control; format: ADME, cell-free; details: 168 h, time 7 day
[32] = Cmax in female BALB/c mouse at 25 mg/kg measured up to 120 hrs by HPLC analysis; format: ADME, organism-based; details: in vivo
[33] = Volume of distribution in female BALB/c mouse at 25 mg/kg measured up to 120 hrs by HPLC analysis; format: ADME, organism-based; details: in vivo
HCT-116 [34] = assay: Antitumor activity against human HCT-116 cells xenografted in female BALB/cA nude mouse model assessed as tumor shrinkage by measuring relative tumor proliferation rate at 25 mg/kg,iv administered twice per week and measured after 24 days relative to control; format: functional; details: time 24 day
[35] = Toxicity in female BALB/cA nude mouse assessed as mortality at 25 mg/kg, iv administered twice per week measured after 107 days; format: organism-based; details: in vivo, 2568 h, time 107 day
[36] = Toxicity in female BALB/cA nude mouse assessed as necrosis in tumor tissue at 25 mg/kg, iv measured after 24 hrs by H and E staining based analysis; format: organism-based; details: in vivo
HCT-116 [37] = assay: Antitumor activity against human HCT-116 cells xenografted in female BALB/cA nude mouse model assessed as increase in tumor cell apoptosis by measuring increase in red fluorescence at 25 mg/kg, iv by TUNEL analysis; format: functional, organism-based
[38] = Toxicity in female BALB/cA nude mouse assessed as animal fatality at 25 mg/kg, iv administered once a week for 35 days; format: organism-based; details: in vivo, 840 h, time 35 day
[39] = Toxicity in female BALB/cA nude mouse assessed as appearance of inflammatory lesions in lung at 25 mg/kg, iv administered once a week for 35 days by H and E staining based analysis; format: organism-based; details: in vivo, 840 h, time 35 day
[40] = Toxicity in female BALB/cA nude mouse assessed as fibrotic changes in spleen at 25 mg/kg, iv administered once a week for 35 days by H and E staining based analysis; format: organism-based; details: in vivo, 840 h, time 35 day

T1 sequence (P02768 whole entry): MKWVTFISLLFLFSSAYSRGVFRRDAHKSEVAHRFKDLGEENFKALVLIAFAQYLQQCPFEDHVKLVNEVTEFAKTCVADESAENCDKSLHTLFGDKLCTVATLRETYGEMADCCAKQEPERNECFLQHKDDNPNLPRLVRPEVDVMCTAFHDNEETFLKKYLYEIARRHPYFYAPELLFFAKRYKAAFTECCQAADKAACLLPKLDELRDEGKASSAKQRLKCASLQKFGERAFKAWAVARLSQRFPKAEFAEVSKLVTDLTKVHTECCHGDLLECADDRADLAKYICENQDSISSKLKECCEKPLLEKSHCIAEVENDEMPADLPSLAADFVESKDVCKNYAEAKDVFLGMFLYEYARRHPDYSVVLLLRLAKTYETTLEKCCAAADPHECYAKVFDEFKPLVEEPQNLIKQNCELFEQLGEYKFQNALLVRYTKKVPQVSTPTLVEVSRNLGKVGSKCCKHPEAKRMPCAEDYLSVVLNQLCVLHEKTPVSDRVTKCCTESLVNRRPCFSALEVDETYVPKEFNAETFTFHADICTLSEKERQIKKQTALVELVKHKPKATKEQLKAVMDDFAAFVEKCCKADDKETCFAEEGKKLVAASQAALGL

| Compound | Activity (HCT-116 [1]) | Activity (A549 [2]) | Activity (4T1 [3]) | Activity (HepG2 [4]) | Activity (HCT-116 [5]) | Activity (A549 [6]) | Activity (4T1 [7]) | Activity (HepG2 [8]) | Drug uptake [9] | Activity (HCT-116 [10]) | Activity (A549 [11]) | Activity (BXPC-3 [12]) | Activity (HepG2 [13]) | Activity (4T1 [14]) | Activity (HCT-116 [15]) | Activity (A549 [16]) | Activity (BXPC-3 [17]) | Activity (HepG2 [18]) | Activity (4T1 [19]) | Activity (Albumin [29]) [%] | other results |
| --- | --- | --- | --- | --- | --- | --- | --- | --- | --- | --- | --- | --- | --- | --- | --- | --- | --- | --- | --- | --- | --- |
| CCc1c2c(nc3ccc(OCc4ccc(O[C@@H]5O[C@H](C(=O)O)[C@@H](O)[C@H](O)[C@H]5O)c(NC(=O)CCNC(=O)COCCOCCNC(=O)COCCOCCNC(=O)CC[C@H](NC(=O)CCCCCCCCCCCCCCCCC(=O)O)C(=O)O)c4)cc13)-c1cc3c(c(=O)n1C2)COC(=O)[C@]3(O)CC | Not active; Compound Showed Lower Cytotoxicity Compared To Sn38 | Not active; Compound Showed Lower Cytotoxicity Compared To Sn38 | Not active; Compound Showed Lower Cytotoxicity Compared To Sn38 | Not active; Compound Showed Lower Cytotoxicity Compared To Sn38 | Active | Active | Active | Active | Active | inactive | inactive | inactive | inactive | inactive | Active | Active | Active | Active | Active | 95 | Cmax [20]: 112 µg/mL; half-life [21]: 3.65 h; Activity [22]: Non-toxic; Activity [23]: Toxic; Activity [24]: Toxic; Activity [25]: Toxic; Activity [26]: Non-toxic; Activity [27]: Non-toxic; Activity [28]: Non-toxic; Activity (Albumin [30]): 94%; Drug metabolism [31]: metabolite_notdetected |
| CCc1c2c(nc3ccc(OCc4ccc(O[C@@H]5O[C@H](C(=O)O)[C@@H](O)[C@H](O)[C@H]5O)c(NC(=O)CCNC(=O)CCCCCN5C(=O)C=CC5=O)c4)cc13)-c1cc3c(c(=O)n1C2)COC(=O)[C@]3(O)CC | Not active; Compound Showed Lower Cytotoxicity Compared To Sn38 | Not active; Compound Showed Lower Cytotoxicity Compared To Sn38 | Not active; Compound Showed Lower Cytotoxicity Compared To Sn38 | Not active; Compound Showed Lower Cytotoxicity Compared To Sn38 | Active | Active | Active | Active | Active | inactive | inactive | inactive | inactive | inactive | Active | Active | Active | Active | Active | 99 | Cmax [32]: 50.7 µg/mL; Vd [33]: 0.61 L/kg; Activity (HCT-116 [34]): 4.6%; Activity [35]: Non-toxic; Activity [36]: Toxic; Activity (HCT-116 [37]): Active; Activity [38]: Non-toxic; Activity [39]: Non-toxic; Activity [40]: Non-toxic; Drug metabolism [31]: metabolite_notdetected |

Source: ChEMBL document CHEMBL6134851, “Comparative Study on Covalent and Noncovalent Endogenous Albumin-Binding β-Glucuronidase-Activated SN38 Prodrugs for Antitumor Efficacy” (J Med Chem, 2025)
